Test results reported in ChEMBL document CHEMBL4177635, “Discovery and structure-activity-relationship study of novel conformationally restricted indane analogues for mutant isocitric dehydrogenase 1 (IDH1) inhibitors” (Bioorg Med Chem Lett, 2017).

Tests used:
[1] = target: Isocitrate dehydrogenase [NADP] cytoplasmic (Homo sapiens, UniProt O75874, R132C); assay: Inhibition of IDH1 R132C mutant in human HT1080 cells assessed as reduction in 2-hydroxyglutarate production after 48 hrs by LC-MS/MS analysis; type: cell-based
[2] = target: Isocitrate dehydrogenase [NADP] cytoplasmic (Homo sapiens, UniProt O75874, R132H); assay: Inhibition of IDH1 R132H mutant (unknown origin) using alpha-ketoglutarate as substrate after 60 mins by resazurin dye based fluorescence assay
[3] = target: Isocitrate dehydrogenase [NADP] cytoplasmic (Homo sapiens, UniProt O75874); assay: Inhibition of IDH1 (unknown origin) using isocitrate as substrate after 60 mins by resazurin dye based fluorescence assay
[4] = species: Homo sapiens; assay: Selectivity ratio of IC50 for IDH2 R140Q mutant (unknown origin) to IC50 for IDH2 R140Q mutant (unknown origin)
[5] = Clearance in ICR mouse at 1 mg/kg, iv by HPLC-MS analysis; type: ADME, organism-based; settings: in vivo
[6] = test system: Mus musculus; assay: AUC in ICR mouse at 5 mg/kg, po by HPLC-MS analysis; type: ADME, organism-based; settings: in vivo
[7] = target: Isocitrate dehydrogenase [NADP], mitochondrial (Homo sapiens, UniProt P48735, R140Q); assay: Inhibition of IDH2 R140Q mutant (unknown origin) using alpha-ketoglutarate as substrate pretreated for 60 mins followed by substrate addition measured after 60 mins by resazurin dye based fluorescence assay
[8] = test system: Mus musculus; assay: Oral bioavailability in ICR mouse at 5 mg/kg by HPLC-MS analysis; type: ADME, organism-based; settings: in vivo
[9] = species: Homo sapiens; assay: Selectivity ratio of IC50 for IDH1 (unknown origin) to IC50 for […] (unknown origin)
[10] = test system: Mus musculus; assay: AUC in ICR mouse at 1 mg/kg, iv by HPLC-MS analysis; type: ADME, organism-based; settings: in vivo
[11] = Volume of distribution at steady state in ICR mouse at 1 mg/kg, iv or 5 mg/kg, po by HPLC-MS analysis; type: ADME, organism-based; settings: in vivo, read-out: Vdss
[12] = Intrinsic clearance in mouse liver microsomes assessed per g protein at 1 uM by LC-MS/MS analysis; type: ADME, microsome
[13] = Intrinsic clearance in rat liver microsomes assessed per g protein at 1 uM by LC-MS/MS analysis; type: ADME, microsome

Sequence of Isocitrate dehydrogenase [NADP] cytoplasmic (Homo sapiens, UniProt O75874, R132C) (O75874 2-414 R132C limits assumed): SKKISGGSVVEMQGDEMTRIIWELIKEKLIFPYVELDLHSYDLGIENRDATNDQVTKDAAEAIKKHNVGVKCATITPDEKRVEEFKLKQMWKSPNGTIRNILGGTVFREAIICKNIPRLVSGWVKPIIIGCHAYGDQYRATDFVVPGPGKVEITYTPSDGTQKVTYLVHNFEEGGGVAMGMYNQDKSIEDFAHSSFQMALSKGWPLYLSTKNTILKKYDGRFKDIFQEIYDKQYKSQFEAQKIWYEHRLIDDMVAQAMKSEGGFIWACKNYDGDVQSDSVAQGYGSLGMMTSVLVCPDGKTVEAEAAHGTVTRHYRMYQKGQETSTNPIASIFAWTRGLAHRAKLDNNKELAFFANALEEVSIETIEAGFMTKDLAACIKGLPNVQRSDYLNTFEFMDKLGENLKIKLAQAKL
Sequence of Isocitrate dehydrogenase [NADP] cytoplasmic (Homo sapiens, UniProt O75874, R132H) (O75874 2-414 R132H limits assumed): as the sequence (O75874 2-414 R132C limits assumed) above, with C131H counted along it
Sequence of Isocitrate dehydrogenase [NADP] cytoplasmic (Homo sapiens, UniProt O75874) (O75874 whole entry): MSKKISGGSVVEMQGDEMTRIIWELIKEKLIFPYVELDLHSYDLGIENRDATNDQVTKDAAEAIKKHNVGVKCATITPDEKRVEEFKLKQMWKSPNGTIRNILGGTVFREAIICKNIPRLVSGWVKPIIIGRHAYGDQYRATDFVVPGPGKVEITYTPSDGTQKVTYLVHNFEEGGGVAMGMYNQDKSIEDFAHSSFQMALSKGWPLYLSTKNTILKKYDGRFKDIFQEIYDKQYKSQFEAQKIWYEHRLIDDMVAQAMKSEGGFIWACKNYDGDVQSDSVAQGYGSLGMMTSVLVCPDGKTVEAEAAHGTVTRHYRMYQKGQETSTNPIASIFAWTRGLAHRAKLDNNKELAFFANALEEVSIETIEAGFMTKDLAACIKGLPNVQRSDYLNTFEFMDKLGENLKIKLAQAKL
Sequence of Isocitrate dehydrogenase [NADP], mitochondrial (P48735 40-452 R140Q limits assumed): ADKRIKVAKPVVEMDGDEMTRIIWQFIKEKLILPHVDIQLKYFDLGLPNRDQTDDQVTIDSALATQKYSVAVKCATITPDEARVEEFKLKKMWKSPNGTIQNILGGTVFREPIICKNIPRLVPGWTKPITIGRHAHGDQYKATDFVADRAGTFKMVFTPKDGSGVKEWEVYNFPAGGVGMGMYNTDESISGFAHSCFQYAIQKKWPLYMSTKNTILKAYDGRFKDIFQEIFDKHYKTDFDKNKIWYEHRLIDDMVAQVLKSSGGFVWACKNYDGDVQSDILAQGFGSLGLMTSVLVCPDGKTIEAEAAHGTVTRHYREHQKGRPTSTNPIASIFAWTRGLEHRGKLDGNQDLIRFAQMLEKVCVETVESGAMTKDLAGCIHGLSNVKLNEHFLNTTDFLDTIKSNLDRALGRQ

In the case of `N#Cc1ccnc(N2C(=O)CC[C@H]2C(=O)N(c2cc(F)cc(F)c2)[C@@]2(C(=O)NC3CC(F)(F)C3)CCc3ccccc32)n1`, the IC50 [1] is reported as 0.0149 µM and the IC50 [2] is reported as 0.022 µM.

In the case of `N#Cc1ccnc(N2C(=O)OC[C@H]2C(=O)N(c2cccc(F)c2)[C@@]2(C(=O)NC3CC(F)(F)C3)CCc3cccc(Cl)c32)c1`, the IC50 [1] is reported as 0.009 µM and the IC50 [2] is reported as 0.042 µM.

Compound `N#Cc1ccnc(N2C(=O)OC[C@H]2C(=O)N(c2cc(F)cc(F)c2)[C@@]2(C(=O)NC3CC(F)(F)C3)CCc3ccccc32)n1` has an IC50 [1] of 0.308 µM and an IC50 [2] of 0.04 µM.

Work on `O=C1CC[C@@H](C(=O)N(c2cc(F)cc(F)c2)[C@@]2(C(=O)NC3CC(F)(F)C3)CCc3ccccc32)N1c1cnccn1` yielded an IC50 [2] of 0.128 µM.

In the case of `N#Cc1ccnc(N2C(=O)CC[C@H]2C(=O)N(c2cccc(F)c2)[C@@]2(C(=O)NC3CC(F)(F)C3)CCc3cc(Cl)ccc32)c1`, the IC50 [3] is reported as 1.78 µM, the Ratio IC50 [4] is reported as over 2040 and the clearance [5] is reported as 1.2 L/h/kg. It also gave an AUC [6] of 3.78 µg·h/mL, an IC50 [7] of over 0.1 µM and an F [8] of 38%. It also gave a Ratio IC50 [9] of 36, an IC50 [1] of 0.0075 µM and an AUC [10] of 0.834 µg·h/mL. For the same compound, the IC50 [2] was 0.049 µM and the Vd [11] was 1.9 L.

Compound `N#Cc1ccnc(N2C(=O)CC[C@H]2C(=O)N(c2ccccc2)[C@@]2(C(=O)NC3CC(F)(F)C3)CCc3ccccc32)c1` has an IC50 [2] of 0.26 µM.

Compound `N#Cc1cccc(N2C(=O)CC[C@H]2C(=O)N(c2cc(F)cc(F)c2)[C@@]2(C(=O)NC3CC(F)(F)C3)CCc3ccccc32)c1` has an IC50 [2] of 2.61 µM.

Compound `N#Cc1ccnc(N2C(=O)CC[C@H]2C(=O)N(c2cc(F)cc(F)c2)[C@@]2(C(=O)NC3CC(F)(F)C3)CCc3cccc(Cl)c32)c1` has an IC50 [2] of 0.18 µM.

For `N#Cc1ccnc(N2C(=O)CC[C@H]2C(=O)N(c2cccc(F)c2)[C@@]2(C(=O)NC3CC(F)(F)C3)CCc3cccc(F)c32)c1`, the IC50 [1] was 0.052 µM and the IC50 [2] was 0.051 µM.

`N#Cc1ccnc(N2C(=O)CC[C@H]2C(=O)N(c2cc(F)cc(F)c2)[C@@]2(C(=O)NC3CC(F)(F)C3)CCc3ccccc32)c1` showed an IC50 [3] of 3.56 µM, a Ratio IC50 [4] of over 2200 and a clearance [5] of 0.5 L/h/kg. It also gave an AUC [6] of 3.62 µg·h/mL, an IC50 [7] of over 0.1 µM and an F [8] of 87%. For the same compound, the Ratio IC50 [9] was 79, the IC50 [1] was 0.005 µM and the AUC [10] was 1.984 µg·h/mL. For the same compound, the IC50 [2] was 0.045 µM and the Vd [11] was 1 L.

With `N#Cc1ccnc(N2C(=O)CC[C@H]2C(=O)N(c2cncc(F)c2)[C@@]2(C(=O)NC3CC(F)(F)C3)Cc3ccccc32)c1` the IC50 [2] was 0.27 µM.

Compound `N#Cc1ccnc(N2C(=O)OC[C@H]2C(=O)N(c2cc(F)cc(F)c2)[C@@]2(C(=O)NC3CC(F)(F)C3)CCc3ccccc32)c1` has an IC50 [1] of 0.0089 µM and an IC50 [2] of 0.054 µM.

Work on `N#Cc1ccnc(N2C(=O)CC[C@H]2C(=O)N(c2cccc(F)c2)[C@@]2(C(=O)NCC3CC3)CCc3ccccc32)c1` yielded an IC50 [2] of 0.266 µM.

`O=C1CC[C@@H](C(=O)N(c2cc(F)cc(F)c2)[C@@]2(C(=O)NC3CC(F)(F)C3)CCc3ccccc32)N1c1ccccn1` gave an IC50 [2] of over 10 µM.

Work on `N#Cc1ccnc(N2C(=O)CC[C@H]2C(=O)N(c2cccc(Cl)c2)[C@@]2(C(=O)NC3CC(F)(F)C3)CCc3ccccc32)c1` yielded an IC50 [2] of 0.255 µM.

Compound `N#Cc1ccnc(N2C(=O)CC[C@H]2C(=O)N(c2cncc(F)c2)[C@@]2(C(=O)NC3CC(F)(F)C3)CCCc3ccccc32)c1` has an IC50 [2] of 0.275 µM.

Compound `N#Cc1ccnc(N2C(=O)CC[C@H]2C(=O)N(c2cccc(F)c2)[C@@]2(C(=O)NC3CC(F)(F)C3)CCc3cc(F)ccc32)c1` has an IC50 [2] of 0.108 µM.

Work on `N#Cc1ccnc(N2C(=O)CC[C@H]2C(=O)N(c2cccc(F)c2)[C@@]2(C(=O)NC3CC(F)(F)C3)CCc3cccc(Cl)c32)n1` yielded an IC50 [1] of 0.042 µM and an IC50 [2] of 0.022 µM.

`N#Cc1ccnc(N2C(=O)OC[C@H]2C(=O)N(c2cccc(F)c2)[C@@]2(C(=O)NC3CC(F)(F)C3)CCc3cccc(Cl)c32)n1` showed an IC50 [1] of 0.029 µM and an IC50 [2] of 0.0056 µM.

`N#Cc1ccnc(N2C(=O)CC[C@H]2C(=O)N(c2cccc(F)c2)[C@@]2(C(=O)NC3CCOCC3)CCc3ccccc32)c1` showed an IC50 [2] of over 1 µM.

Work on `N#Cc1ccnc(N2C(=O)CC[C@H]2C(=O)N(c2cccc(F)c2)[C@@]2(C(=O)NC3CCCCC3)CCc3ccccc32)c1` yielded a CLH [12] of 2359 mL/min, an IC50 [1] of under 0.01 µM and an IC50 [2] of 0.037 µM. The CLH [13] was 1145 mL/min.

With `N#Cc1ccnc(N2C(=O)CC[C@@H]2C(=O)N(c2cccc(F)c2)[C@@]2(C(=O)NC3CC(F)(F)C3)CCc3ccccc32)c1` the IC50 [2] was over 10 µM.

With `N#Cc1ccnc(N2C(=O)CC[C@H]2C(=O)N(c2ccc(F)c(F)c2)[C@@]2(C(=O)NC3CC(F)(F)C3)CCc3ccccc32)c1` the IC50 [2] was 0.095 µM.

With `N#Cc1ccnc(N2C(=O)CC[C@H]2C(=O)N(c2cccc(F)c2)[C@@]2(C(=O)NC3CC(F)(F)C3)CCc3ccc(F)cc32)c1` the IC50 [2] was 0.138 µM.

In the case of `N#Cc1ccnc(N2C(=O)CC[C@H]2C(=O)N(c2cc(F)ccc2F)[C@@]2(C(=O)NC3CC(F)(F)C3)CCc3ccccc32)c1`, the IC50 [2] is reported as 0.338 µM.

`N#Cc1ccnc(N2C(=O)CC[C@H]2C(=O)N(c2cccc(F)c2)[C@@]2(C(=O)NC3CC(F)(F)C3)CCc3c(Cl)cccc32)c1` gave an IC50 [1] of 0.021 µM and an IC50 [2] of 0.067 µM.

With `N#Cc1ccnc(N2C(=O)CC[C@H]2C(=O)N(c2cccc(F)c2)[C@@]2(C(=O)NC3CC(F)(F)C3)CCc3c(F)cccc32)c1` the IC50 [1] was 0.027 µM and the IC50 [2] was 0.068 µM.

Work on `CS(=O)(=O)c1ccnc(N2C(=O)CC[C@H]2C(=O)N(c2cc(F)cc(F)c2)[C@@]2(C(=O)NC3CC(F)(F)C3)CCc3ccccc32)c1` yielded an IC50 [2] of 2.96 µM.

`N#Cc1ccnc(N2C(=O)CC[C@H]2C(=O)N(c2cc(F)cc(Cl)c2)[C@@]2(C(=O)NC3CC(F)(F)C3)CCc3ccccc32)c1` showed an IC50 [2] of 0.172 µM.

Work on `N#Cc1ccnc(N2C(=O)CC[C@H]2C(=O)N(c2cccc(F)c2)[C@@]2(C(=O)Nc3ccccc3)CCc3ccccc32)c1` yielded an IC50 [2] of over 1 µM.

Work on `N#Cc1ccnc(N2C(=O)OC[C@H]2C(=O)N(c2cccc(F)c2)[C@@]2(C(=O)NC3CC(F)(F)C3)CCc3ccccc32)c1` yielded an IC50 [1] of 0.019 µM and an IC50 [2] of 0.058 µM.

Compound `N#Cc1ccnc(N2C(=O)CC[C@H]2C(=O)N(c2cccc(F)c2)[C@@]2(C(=O)NCC3CCC(F)(F)CC3)CCc3ccccc32)c1` has a CLH [12] of 567 mL/min, an IC50 [1] of 0.015 µM and an IC50 [2] of 0.08 µM. For the same compound, the CLH [13] was 24 mL/min.

In the case of `N#Cc1ccnc(N2C(=O)CC[C@H]2C(=O)N(c2ccc(Cl)c(F)c2)[C@@]2(C(=O)NC3CC(F)(F)C3)CCc3ccccc32)c1`, the IC50 [2] is reported as 0.186 µM.

In the case of `N#Cc1ccnc(N2C(=O)CC[C@H]2C(=O)N(c2cncc(F)c2)[C@@]2(C(=O)NC3CC(F)(F)C3)CCc3ccccc32)c1`, the IC50 [1] is reported as 0.021 µM and the IC50 [2] is reported as 0.094 µM.

Compound `N#Cc1ccnc(N2CCC[C@H]2C(=O)N(c2cccc(F)c2)[C@@]2(C(=O)NC3CC(F)(F)C3)CCc3ccccc32)c1` has an IC50 [2] of 0.635 µM.

In the case of `N#Cc1ccnc(N2C(=O)CC[C@H]2C(=O)N(c2cccc(F)c2F)[C@@]2(C(=O)NC3CC(F)(F)C3)CCc3ccccc32)c1`, the IC50 [2] is reported as 0.148 µM.

With `N#Cc1ccnc(N2C(=O)CC[C@H]2C(=O)N(c2cccc(F)c2)[C@@]2(C(=O)NC3CC(F)(F)C3)CCc3ccccc32)c1` the CLH [12] was 54.1 mL/min, the IC50 [1] was 0.025 µM and the IC50 [2] was 0.085 µM. The CLH [13] was 3.7 mL/min.

With `N#Cc1ccnc(N2C(=O)CC[C@H]2C(=O)N(c2cc(F)cc(F)c2)[C@@]2(C(=O)NC3CC(F)(F)C3)CCc3c(Cl)cccc32)c1` the IC50 [1] was 0.014 µM and the IC50 [2] was 0.053 µM.

With `COc1ccnc(N2C(=O)CC[C@H]2C(=O)N(c2cc(F)cc(F)c2)[C@@]2(C(=O)NC3CC(F)(F)C3)CCc3ccccc32)c1` the IC50 [2] was over 10 µM.
